Measured values from patent US9593108B2, “Compounds and methods for antiviral treatment” (PTC Therapeutics, Inc., priority 2009, dated 2017).

Experiments:
[1] = tested on: HCV replicon RNA (GenBank Accession No. AJ242654); experiment: HCV Replicon Assay (replicon RNA reduction and/or Fluc reporter signal); type: cell-based, Hepatitis C virus; settings: Hepatitis C virus, 72 h, replicon-containing cells cultured with test compound for up to 3 days
Outline: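 IC50 values mostly reflect the drop in replicon RNA, though Fluc reporter signal may also be used. Compound incubated with cells carrying the bicistronic replicon for as long as 3 days; interferon served as positive control.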

SMILES | melting point [°C] | IC50 [1] [nM]
CCc1cnc2c(c1)c(C#N)c(-c1ccc(S(=O)(=O)N[C@@H](C)C(F)(F)F)cn1)n2-c1nccs1 [Cpd 512, 6-[3-cyano-5-ethyl-1-(1,3-thiazol-2-yl)-1H-pyrrolo[2,3-b]pyridin-2-yl]-N-[(2S)-1,1,1-trifluoropropan-2-yl]pyridine-3-sulfonamide] | 229 to 231 | < 500
[2H]C(C)(C)NS(=O)(=O)c1ccc(-c2c(C#N)c3cc(C(F)(F)F)cnc3n2C2CCC2)nc1 [Cpd 513, 6-[3-cyano-1-cyclobutyl-5-(trifluoromethyl)-1H-pyrrolo[2,3-b]pyridin-2-yl]-N-[(2-deuterium)propan-2-yl]pyridine-3-sulfonamide] | 191 to 193 | < 500
Cc1cnc2c(c1)c(C#N)c(-c1ccc(S(=O)(=O)N[C@@H](C)C(F)(F)F)cn1)n2-c1nc(C#N)cs1 [Cpd 514, 6-[3-cyano-1-(4-cyano-1,3-thiazol-2-yl)-5-methyl-1H-pyrrolo[2,3-b]pyridin-2-yl]-N-[(2S)-1,1,1-trifluoropropan-2-yl]pyridine-3-sulfonamide] | 259 to 261 | 500 to 2000
CC(C)(C)NS(=O)(=O)c1ccc(-c2c(C#N)c3cc(Cl)cnc3n2-c2nccs2)nc1 [Cpd 515, N-tert-butyl-6-[5-chloro-3-cyano-1-(1,3-thiazol-2-yl)-1H-pyrrolo[2,3-b]pyridin-2-yl]pyridine-3-sulfonamide] | 216 to 218 | < 500
CC(C)(C)NS(=O)(=O)c1ccc(-c2c(C#N)c3cc(C(F)(F)F)cnc3n2-c2ccccc2)nc1 [Cpd 516, N-tert-butyl-6-[3-cyano-1-phenyl-5-(trifluoromethyl)-1H-pyrrolo[2,3-b]pyridin-2-yl]pyridine-3-sulfonamide] | 201.2 to 202.4 | < 500
CC(C)(C)NS(=O)(=O)c1ccc(-c2c(C#N)c3cc(C(F)(F)F)cnc3n2-c2ccc(F)cc2)nc1 [Cpd 517, N-tert-butyl-6-[3-cyano-1-(4-fluorophenyl)-5-(trifluoromethyl)-1H-pyrrolo[2,3-b]pyridin-2-yl]pyridine-3-sulfonamide] | 228.3 to 229.4 | 500 to 2000
CC(C)(C)NS(=O)(=O)c1ccc(-c2c(C#N)c3cc(C(F)(F)F)cnc3n2-c2ccccn2)nc1 [Cpd 518, N-tert-butyl-6-[3-cyano-1-(pyridin-2-yl)-5-(trifluoromethyl)-1H-pyrrolo[2,3-b]pyridin-2-yl]pyridine-3-sulfonamide] | 210.4 to 211.8 | < 500
CC(C)(C)NS(=O)(=O)c1ccc(-c2c(C#N)c3cc(F)cnc3n2-c2ccccc2)nc1 [Cpd 519, N-tert-butyl-6-(3-cyano-5-fluoro-1-phenyl-1H-pyrrolo[2,3-b]pyridin-2-yl)pyridine-3-sulfonamide] | 239.4 to 241.5 | < 500
CC(C)(C)NS(=O)(=O)c1ccc(-c2c(C#N)c3cc(F)cnc3n2-c2ccc(F)cc2)nc1 [Cpd 520, N-tert-butyl-6-[3-cyano-5-fluoro-1-(4-fluorophenyl)-1H-pyrrolo[2,3-b]pyridin-2-yl]pyridine-3-sulfonamide] | 259.1 to 260.7 | 2000 to 5000
CC(C)(C)NS(=O)(=O)c1ccc(-c2c(C#N)c3cc(F)cnc3n2-c2cnccn2)nc1 [Cpd 521, N-tert-butyl-6-[3-cyano-5-fluoro-1-(pyrazin-2-yl)-1H-pyrrolo[2,3-b]pyridin-2-yl]pyridine-3-sulfonamide] | 245 to 247 | < 500
CC(C)(C)NS(=O)(=O)c1ccc(-c2c(C#N)c3cc(F)cnc3n2-c2ccccn2)nc1 [Cpd 522, N-tert-butyl-6-[3-cyano-5-fluoro-1-(pyridin-2-yl)-1H-pyrrolo[2,3-b]pyridin-2-yl]pyridine-3-sulfonamide] | 202.2 to 204.3 | < 500
CC(C)(C)NS(=O)(=O)c1ccc(-c2c(C(N)=O)c3cc(C(F)(F)F)cnc3n2-c2ccccc2)nc1 [Cpd 523, 2-[5-(tert-butylsulfamoyl)pyridin-2-yl]-1-phenyl-5-(trifluoromethyl)-1H-pyrrolo[2,3-b]pyridine-3-carboxamide] | 241.8 to 243 | < 500
Cc1cnc2c(c1)c(C#N)c(-c1ccc(S(=O)(=O)NC(C)(C)C)cn1)n2-c1ccccc1 [Cpd 524, N-tert-butyl-6-(3-cyano-5-methyl-1-phenyl-1H-pyrrolo[2,3-b]pyridin-2-yl)pyridine-3-sulfonamide] | 228.6 to 229.3 | 500 to 2000
Cc1cnc2c(c1)c(C#N)c(-c1ccc(S(=O)(=O)NC(C)(C)C)cn1)n2-c1ccccn1 [Cpd 525, N-tert-butyl-6-[3-cyano-5-methyl-1-(pyridin-2-yl)-1H-pyrrolo[2,3-b]pyridin-2-yl]pyridine-3-sulfonamide] | 214.2 to 215.4 | 500 to 2000
CC(C)(C)NS(=O)(=O)c1ccc(-c2c(C#N)c3cc(C(F)(F)F)cnc3n2-c2cnccn2)nc1 [Cpd 526, N-tert-butyl-6-[3-cyano-1-(pyrazin-2-yl)-5-(trifluoromethyl)-1H-pyrrolo[2,3-b]pyridin-2-yl]pyridine-3-sulfonamide] | 214.2 to 215.4 | < 500
CC(C)(C)NS(=O)(=O)c1ccc(-c2c(C(N)=O)c3cc(F)cnc3n2-c2ccccc2)nc1 [Cpd 527, 2-[5-(tert-butylsulfamoyl)pyridin-2-yl]-5-fluoro-1-phenyl-1H-pyrrolo[2,3-b]pyridine-3-carboxamide] | 275.2 to 276.9 | 500 to 2000
